These results are taken from paper PMC3085482, “Phosphorylation-Dependent Differential Regulation of Plant Growth, Cell Death, and Innate Immunity by the Regulatory Receptor-Like Kinase BAK1” (PLoS Genetics, 2011).

For data set [1], the target named is T1, EFR CD (MBP-EFR) (Arabidopsis thaliana, UniProt C0LGT6).
T1 sequence (C0LGT6 682-1031): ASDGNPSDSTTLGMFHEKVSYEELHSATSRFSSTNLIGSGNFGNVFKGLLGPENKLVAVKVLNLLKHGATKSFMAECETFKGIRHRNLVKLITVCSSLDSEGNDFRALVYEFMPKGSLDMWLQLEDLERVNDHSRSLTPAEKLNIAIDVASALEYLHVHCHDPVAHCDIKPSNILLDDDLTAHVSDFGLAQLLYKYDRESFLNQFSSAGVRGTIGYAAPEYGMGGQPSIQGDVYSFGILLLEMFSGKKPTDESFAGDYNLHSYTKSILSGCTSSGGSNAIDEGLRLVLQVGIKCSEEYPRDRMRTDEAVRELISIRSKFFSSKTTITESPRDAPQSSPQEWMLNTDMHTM
The experiment in a line: in vitro kinase assay with […]-γ-ATP, SDS-PAGE autoradiography. It counts as biochemical. As to conditions: 1 µM unlabelled ATP plus [32P]-γ-ATP; labelled compound; myelin basic protein; 10 mM MgCl2, 10 mM MnCl2, pH 7.5, 30 °C.

In data set [2] the target is T2, BRI1 CD (MBP-BRI1) (Arabidopsis thaliana, UniProt O22476).
T2 sequence (O22476 814-1196): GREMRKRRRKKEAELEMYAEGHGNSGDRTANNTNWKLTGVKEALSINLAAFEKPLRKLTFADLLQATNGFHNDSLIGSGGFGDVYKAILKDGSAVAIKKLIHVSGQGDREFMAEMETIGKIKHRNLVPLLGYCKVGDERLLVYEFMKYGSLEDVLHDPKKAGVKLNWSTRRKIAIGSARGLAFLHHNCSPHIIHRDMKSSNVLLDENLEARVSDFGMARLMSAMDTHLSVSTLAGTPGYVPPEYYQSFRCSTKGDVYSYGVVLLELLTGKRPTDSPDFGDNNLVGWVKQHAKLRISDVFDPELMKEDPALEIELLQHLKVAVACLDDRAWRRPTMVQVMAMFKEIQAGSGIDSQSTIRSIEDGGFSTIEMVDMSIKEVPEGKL
The description is as above. As to conditions: 1 µM unlabelled ATP plus [32P]-γ-ATP; labelled compound; myelin basic protein; 10 mM MgCl2, 10 mM MnCl2, pH 7.5, 30 °C. It counts as biochemical.

Substrate in data set [3]: Nc1ncnc2c1ncn2[C@@H]1O[C@H](COP(=O)(O)OP(=O)(O)OP(=O)(O)O)[C@@H](O)[C@H]1O
The experiment in a line: autophosphorylation over ATP range, PVDF blot autoradiography (PhosphorImager). It counts as biochemical, Arabidopsis thaliana.

Residue numbers refer to the chain shown, from its start. Names may count otherwise.

Turning to `Nc1ncnc2c1ncn2[C@@H]1O[C@H](COP(=O)(O)OP(=O)(O)OP(=O)(O)O)[C@@H](O)[C@H]1O` [ATP], the “in vitro kinase assay with [32P]-γ-ATP, SDS-PAGE autoradiography” value in data set [1] is “EFR CD possessed only minor auto-phosphorylation capacity”; in data set [2], “BRI1 CD had a very strong auto- and trans-phosphorylation capacity”.

B1: BAK1 CD (GST-BAK1) (Arabidopsis thaliana) (protein)
chain: DHFFDVPAEEDPEVHLGQLKRFSLRELQVASDNFSNKNILGRGGFGKVYKGRLADGTLVAVKRLKEERTQGGELQFQTEVEMISMAVHRNLLRLRGFCMTPTERLLVYPYMANGSVASCLRERPESQPPLDWPKRQRIALGSARGLAYLHDHCDPKIIHRDVKAANILLDEEFEAVVGDFGLAKLMDYKDTHVTTAVRGTIGHIAPEYLSTGKSSEKTDVFGYGVMLLELITGQRAFDLARLANDDDVMLLDWVKGLLKEKKLEALVDVDLQGNYKDEEVEQLIQVALLCTQSSPMERPKMSEVVRMLEGDGLAERWEEWQKEEMFRQDFNYPTHHPAVSGWIIGDSTSQIENEYPSGPR
notes: cytoplasmic domain residues 256-615, N-terminal GST tag kept (pGEX-4T1), E. coli BL21, glutathione purified
As for B1, in data set [3] (autophosphorylation of GST-BAK1 CD), the Km entry is “∼7 µM”.

B2: BAK1 CD (GST-BAK1) (Arabidopsis thaliana; C408Y) (protein)
chain: B1 chain with C153Y
notes: as for B1
Turning to B2, the Km result in data set [3] (autophosphorylation of GST-BAK1 CD (BAK1-5 protein)) is on record as “∼25 µM”.
